Assay [1] in a line: Competitive inhibition of goat liver alkaline phosphatase assessed as residual activity using p-nitrophenyl phosphate as substrate by Lineweaver-Burk plot analysis. Also on record: species or system Capra hircus.
For assay [2], the species on record is Capra hircus. The experiment in a line: Inhibition of goat liver alkaline phosphatase assessed as residual activity using p-nitrophenyl phosphate as substrate at 1 mM after 30 mins relative to control.
Assay [3] is filed under the species Capra hircus. The experiment in a line: Inhibition of goat liver acid phosphatase assessed as residual activity using p-nitrophenyl phosphate as substrate at 1 mM after 30 mins relative to control.
Assay [4] in a line: Non-competitive inhibition of goat liver alkaline phosphatase assessed as residual activity using p-nitrophenyl phosphate as substrate by Lineweaver-Burk plot analysis. Also on record: species or system Capra hircus.

We go through ten compounds from ChEMBL document CHEMBL2429756, “Synthesis, docking, and in vitro studies of some substituted bischalcones on acid and alkaline phosphatases” (Med Chem Res, 2013).

The structures appear in SMILES notation.

A word on the Ki: it is the equilibrium dissociation constant of an inhibitor or competing ligand from its target. Consider `O=C1/C(=C/c2ccccc2)CCC/C1=C\c1ccccc1` [2,6-DIBENZYLIDENECYCLOHEXANONE], for which the Ki in assay [1] stood at 470 µM. The Activity is 41.2% in assay [2] and 121% in assay [3].
For `CN(C)c1ccc(/C=C2\CCC/C(=C\c3ccc(N(C)C)cc3)C2=O)cc1`, in that order: 470 µM, 40.2% and 113%.
Consider `COc1ccc(/C=C2\CCC/C(=C\c3ccc(OC)cc3)C2=O)cc1`, for which, in assay [1], the Ki was determined as 389 µM. In addition, the Activity in assay [2] is 31.7%; in assay [3], 158%.
In the same order, the values of `O=C1/C(=C/c2ccc(Br)cc2)CCC/C1=C\c1ccc(Br)cc1` are 565 µM, 43.5% and 127%.
In the same order, the values of `O=C1/C(=C/c2ccc(F)cc2)CCC/C1=C\c1ccc(F)cc1` are 1090 µM, 57.8% and 140%.
Regarding `c1ccc([C@H]2CN3CCSC3=N2)cc1` [LEVAMISOLE], the Ki in assay [1] turned out to be 4000 µM. The Activity in assay [2] is 88%.
For the compound `O=C1/C(=C/C=C/c2ccccc2)CCC/C1=C\C=C\c1ccccc1`, the Activity in assay [2] was 30.8%; in assay [3] it was 129%. The Ki in assay [4] is 441 µM.
On to `O=C1/C(=C/c2ccc([N+](=O)[O-])cc2)CCC/C1=C\c1ccc([N+](=O)[O-])cc1`, for which the Ki in assay [1] was found to be 250 µM. Further, the Activity came out at 26% in assay [2] and 133% in assay [3].
With `Cc1ccc(/C=C2\CCC/C(=C\c3ccc(C)cc3)C2=O)cc1`, the Activity in assay [2] stood at 46%; in assay [3], 149%. In addition, the Ki in assay [4] was determined as 845 µM.
As to `O=C1/C(=C/c2ccc(Cl)cc2)CCC/C1=C\c1ccc(Cl)cc1`, in assay [1], the Ki came to 670 µM. Further, the Activity in assay [2] is 46.2%; in assay [3] it was 129%.
